{"source": "ChEMBL document CHEMBL4145458", "about": "“Natural compounds and combination therapy in colorectal cancer treatment” (2018)", "format_in_all_cases": "functional", "key": {"Homo sapiens [1]": {"test_system": "Homo sapiens", "assay": "Reduction in aberrant crypt foci number in colorectal cancer patient at 4 g/day, po administered 30 days relative to control", "set-up": "scale not given: the % may be the effect or the level left"}, "CT26": {"test_system": "CT26", "assay": "Antitumor activity against mouse CT26 cells implanted in BALB/c mouse at 1 mg/kg, po qd administered through oral gavage for 15 days in presence of cisplatin relative to control"}, "Homo sapiens [2]": {"test_system": "Homo sapiens", "assay": "Reduction in tumor cell proliferation in colorectal cancer patient at 0.5 to 1 g/day, po administered 8 times per day for 8 days by Ki-67 staining-based microscopic method relative to control", "set-up": "scale not given: the % may be the effect or the level left"}, "Homo sapiens [3]": {"test_system": "Homo sapiens", "assay": "Upregulation of cleaved caspase-3 levels in malignant hepatic tissue of cancer patient at 5 g/day, po administered for 10 to 21 days by immunohistochemistry relative to control"}, "[4]": {"assay": "Antitumor activity against human TC118 cells xenografted in Swiss nu/nu mouse assessed as tumor growth inhibition at 150 mg/kg, ip qd for 5 days in presence of 5-FU", "conditions": "120 h, read-out: TGI"}, "Homo sapiens [5]": {"test_system": "Homo sapiens", "assay": "Induction of apoptosis in tumor of colorectal cancer patient at 200 mg/day, po administered for 14 days relative to control"}}, "data": [{"smiles": "COc1cc(/C=C/C(=O)CC(=O)/C=C/c2ccc(O)c(OC)c2)ccc1O", "note": "[CURCUMIN]", "values": [{"measurement": "Activity", "setting": "Homo sapiens [1]", "value": 40, "unit": "%"}]}, {"smiles": "O=C(/C=C/c1ccc(O)cc1)c1ccc(O)cc1O", "note": "[ISOLIQUIRITIGENIN]", "values": [{"measurement": "Activity", "setting": "CT26", "value": 79, "unit": "%"}]}, {"smiles": "Oc1ccc(/C=C/c2cc(O)cc(O)c2)cc1", "note": "[RESVERATROL]", "values": [{"measurement": "Activity", "setting": "Homo sapiens [2]", "value": 5, "unit": "%"}, {"measurement": "Activity", "setting": "Homo sapiens [3]", "value": 39, "unit": "%"}]}, {"smiles": "CC(C)=CCC/C(C)=C/CO", "note": "[GERANIOL]", "values": [{"measurement": "inhibition in vivo at 150 mg/kg", "setting": "[4]", "value": "≤ 83", "unit": "%"}]}, {"smiles": "C[C@H]1[C@H](OC(=O)CCC(=O)O)O[C@@H]2O[C@@]3(C)CC[C@H]4[C@H](C)CC[C@@H]1[C@@]24OO3", "note": "[ARTESUNATE]", "values": [{"measurement": "Activity", "setting": "Homo sapiens [5]", "value": 13, "unit": "%"}]}]}
